According to patent US20190350955A1, “METHODS AND PHARMACEUTICAL COMPOSITIONS FOR THE TREATMENT OF CARDIOMYOPATHIES” (INSERM (Institut National de la Sante et de la Recherche …, priority 2016, published 2019):

Legend:
Lmna^H222P/H222P mice = experiment: Immunoblotting of PARylation, PARP-1, AIF, cleaved-caspase 3 in heart; assay type: in vivo, mouse; conditions: NR treated Lmna H222P/H222P mice
Experimental: Mice were bred in an accredited animal facility (accreditation number: C-75-13-08). All experiments on mice were approved by the Comité d'éthique en expérimentation animate Charles Darwin No 5. Mice Lmna^H222P/H222P were backcrossed 8 times to 129S2/SvPasOrlRj strain mice to obtain pure genetic background. Male mice used for the studies were maintained under a 12 h light/12 h dark cycle at constant temperature (23° C.) with free access to food and water. Nicotinamide riboside (NR) complementation: Animals at 17 weeks of age were fed for 9 weeks with either a chow diet (A04: Scientific Animal Food & Engineering) or a chow diet complemented with 0.25% of NR (kindly provided by ChromaDex, Inc. California) corresponding to a dose of 400 mg/kg/day for a mouse weighing 25 g eating 4 g of food per day. […]
Total proteins were extracted in a glass teflon potter from around 5 mg of mouse heart in […] of Cell Lysis Buffer (Cell Signaling) completed with Deacetylation Inhibitors Cocktail (Santa Cruz). Total protein concentration was assessed with BCA™ Protein Assay (Pierce). […] The signal was captured with a CCD camera (G:Box Syngene) and quantified with ImageJ imaging Software (imagej.net).

control mice = experiment: Echocardiography of control (Sf/Sf) mice on NR diet; assay type: in vivo, mouse; conditions: D45 to D47
Source text: Transgenic mice. All experiments with animals conformed to the Directive 2010/63/EU of the European Parliament and were approved by the ethics committee Charles Darvin #5 (agreement 00369.01). SRF^HKO mice bear the tamoxifen-inducible α-MHC-MerCrMer transgene and the Siffloxed allele (Sf/Sf) as described previously (Parlakian et al. (2005). Temporally controlled onset of dilated cardiomyopathy through disruption of the SRF gene in adult heart. Journal 112, 2930-2939; Tritsch et al. (2013). An SRF/miR-1 axis regulates NCX1 and Annexin A5 protein levels in the normal and failing heart. Journal 98, 372-380). Transgenic mice have been bred for more than 20 generations in C57BL/6N background. […]
Echocardiography was performed on lightly anesthetized mice given isoflurane (induction with 2% isoflurane 100% O2. and maintained with 0.5% isoflurance 100% O2). Non-invasive measurements of left ventricular dimensions were evaluated using Doppler echocardiography (Vivid 7 Dimension/Vivid7 PRO; GE Medical Systems) with a probe ultrasound frequency range of 9-14 MHz. […] LV fractional shortening (FS) was calculated using the formula: (LVEDD−LVESD)/LVEDD×100. LV myocardial volume (LVV), LV end-diastolic volume (EDV), and end-systolic volume (ESV) were calculated using a half-ellipsoid model of the LV. From these volumes, LV ejection fraction (EF) was calculated using, the formula: (EDV−ESV)/EDV×100. […]

`NC(=O)c1ccc[n+]([C@@H]2O[C@H](CO)[C@@H](O)[C@H]2O)c1` [NR, nicotinamide riboside] was tested, and the “PARP-1, AIF and cleaved-caspase 3 in heart” value (Lmna^H222P/H222P mice) was “activation”, the PARylation in heart (Lmna^H222P/H222P mice) was “increase” and the H/R ratio (control mice) was “slightly increased”.
